Results as given in patent US20170176446A1, “Methods for Determining the Oncogenic Condition of Cell, Uses Thereof, and Methods for Treating Cancer” (INSERM (INSTITUT NATIONAL DE LA SANTE ET DE LA RECHERCHE …, priority 2009, published 2017).

Tests used:
[1] = system: phorbol ester-binding protein; settings: cited from earlier work
[2] = system: T lymphocytes originating from human serum; settings: concentrations between 1 and 20 μM; cited from earlier work
[3] = system: T lymphocytes; settings: concentrations between 1 and 20 μM; cited from earlier work
[4] = system: IL12; experiment: IL12 gene expression in THP1 cells treated with OCDO; format: cell-based, human; settings: 10 μM OCDO, 4 hours
Method: (§1) The THP1 cells (human myeloid cell line supplied by ATCC) are cultured with a culture medium of DMEM type (Dulbecco's modified eagle medium) supplemented with 10% of fetal calf serum and a mixture of antibiotics. The THP1 cells are treated with 10 μM of OCDO for 4 hours. The RNAs are extracted according to a conventional procedure. The complementary DNAs are produced, and then used to measure the expression of the genes of interest. The expression of the genes encoding interleukin 12 (IL12) and interleukin 10 (IL10) were studied, these interleukins representing a pair of cytokines with antagonistic properties. IL12 is an immunostimulatory cytokine, whereas IL10 is an immunosuppressive cytokine. The expression ratio of these two cytokines makes it possible to evaluate the immunosuppressor or immunostimulatory potential of the cell and its ability to promote tumor progression or, on the contrary, to slow it down.
(§2) The primers used correspond to the human sequences of IL10 and of IL12 and are the following: […]

[5] = system: leukocyte; settings: concentrations between 1 and 20 μM; cited from earlier work
[6] = system: TT cells; experiment: Effect of OCDO on TT tumors implanted in Swiss nude mice; format: in vivo
Method: (§3) a) In this example 2, the human medullary thyroid carcinoma cell line TT (American Tissues and Cells Collection) was used. This line is cultured in an F12K medium modified by Kaighn (sold by the company Invitrogen), containing 10% by weight of fetal calf serum and 2.5 ml of a solution of antibiotics (penicillin/streptomycin) at […]. The OCDO tested comes from the company Steraloids. In order to study in vitro the effect of OCDO on cell growth, the TT cells are seeded on to six-well plates (200 000 cells per well) in an F12K medium as defined above. The TT cells are treated every two days either with a solvent (ethanol at 0.1% in PBS phosphate buffer) or with amounts of OCDO in the solvent resulting in concentrations of 0.1, 1, 2.5 or 5 μM. The cells are counted 4 days after seeding. […] At the OCDO concentration of 5 μM, a proliferation induction factor of 1.5 is measured after 4 days of treatment; the induction of proliferation is therefore established in vitro for OCDO concentrations of between 100 nM and 5 μM. […] The animals (5 or 10 mice per group) are monitored regularly in order to measure tumor development. The volume of the tumors is calculated according to the formula L×l^2×0.5, where L is the length and l is the width of the tumor. […]
The animals were euthanized after 75 days of treatment and the tumor and the various organs were removed in order to be analyzed histologically. […]

[7] = system: TT cells; experiment: Effect of OCDO on TT cell proliferation in vitro; format: cell-based, human; settings: 5 μM OCDO, 4 days of treatment, versus solvent
Method: as §3

[8] = system: IL10; experiment: IL10 gene expression in THP1 cells treated with OCDO; format: cell-based, human; settings: 10 μM OCDO, 4 hours
Method: as §1, §2

[9] = system: NK cell; settings: concentrations between 1 and 20 μM; cited from earlier work
[10] = system: MCF7 cells; experiment: OCDO production by MCF7 cells incubated with [14C]CE, thin-layer chromatography; format: cell-based, human
Text: For assays 1 to 5 and in some of the examples given later in this patent application, MCF7 tumor cells, which originate from the American Tissue Culture Collection (ATCC), were used. […] It is desired to study the activity of ChEH in […] cells by silica thin-layer chromatography. The compounds that it is desired to visualize are the CE and CT compounds defined above. In order to visualize the spots corresponding to CE and CT on a chromatography plate, ^14C-labeled CE and CT compounds were synthesized.
In order to be used in assays 1 to 5 which follow, the cells are seeded into 6-well plates at a density of 80 000 cells in a volume of 2 ml. […] After the incubation time desired for the assay, the medium is collected, the cells are washed with cold PBS (phosphate buffer) (2 ml per well) which is pooled with the medium. The cells are then scraped into cold PBS (1 ml for 3 wells); the wells are again rinsed with cold PBS (1 ml for 3 wells). The cell suspension obtained is centrifuged at 1000 rpm for 5 min at 4° C. […] Throughout the rest of this description, the vehicle solvent used is the same as that defined above.
The aqueous and organic radioactivities are counted. The organic phases are brought to dryness under argon. The residue is resuspended in 60 μl of ethanol and then deposited, in a proportion of 20 μl per lane, on to the glass-backed silica plates (Whatman LK-6-DF, 20×20), which are used in the various assays (these plates having been preheated at 100° C. for 1 hour). The migration solvent used is ethyl acetate. The chromatography plates are placed in contact with a “phosphor-screen” plate in a cassette overnight. […] In order to evaluate the more or less dense nature of the spots obtained on the plates, the radioactivity is quantified by densitometry with the “Imagequant”™ computer program.
Generally, in order to establish the percentages of OCDO inhibition from the thin-layer chromatography (TLC) plates obtained as in assay 2, the radioactive metabolites are identified and quantified on the basis of said plates using a europium-sensitive plate of GP Phosphor screen type (GE Healthcare) and a Storm 840 phosphorimagor (GE Healthcare). The proportion of radiolabeled oxysterols is determined on the autoradiogram obtained by densitometry using the Image Quant 5.2 software. The percentage is calculated on the basis of the ratio between the amount of oxysterols quantified divided by the sum of the amounts of oxysterols (CEE+CE+CT+OCDO). Since the CEE (CE ester) originates exclusively from the CE, the percentage CE is calculated on the basis of the ratio (CE+CEE)/(CE+CEE+CT+OCDO).
Assay 2 given above was therefore completed by measuring the amounts of the products present when the MCF7 tumor cells are incubated as indicated in detail in assay 2.
In order to establish that the link that exists between, on the one hand, the ability of various compounds to inhibit OCDO in an MCF7 tumor cell and, on the other hand, their quality as a ChEH inhibitor, is well-founded, the inhibition coefficients Ki for ChEH relating to a certain number of products was calculated and the production of OCDO by MCF7 cells after incubation of the cells with the same products was measured according to the protocol defined in assay 2 of the present patent application.

[11] = system: OCDO; experiment: OCDO content of TS/A tumors by GC/MS; format: in vivo, mice; settings: tamoxifen 10 μM, 100 μl intratumorally once a day
Method: 5 volumes (relative to the mass removed) of buffer (50 mM Tris-HCl, 150 mM KCl, pH=7.4) are added. The tumors are ground and the homogenates are centrifuged for 5 minutes at 2500 rpm at 4° C. […] After centrifugation (to separate the phases), the organic phase is recovered. The organic phase is evaporated to dryness and then the residue is taken up with 0.5 ml of chloroform. The organic extracts are filtered on 0.5 ml silica cartridges. The polar sterols are eluted sequentially:
1) 0.5 ml of a hexane/chloroform mixture (1/1), 2) 0.5 ml of chloroform, 3) 0.5 ml of ethyl acetate and methanol.
The ethyl acetate fractions are evaporated, silylated (50 μl 1/1 acetonitrile/BSTFA) and then analyzed by GC/MS (2 μl) according to the conditions described above.

[12] = target: T1, ChEH (Homo sapiens, UniProt Q15125); experiment: Inhibition of ChEH activity in MCF7 cells (TLC of [14C]CE conversion); format: cell-based; settings: tamoxifen 0.01-5 μM with [14C]CEα; PBPE 0.01-10 μM with [14C]CEβ
T1 construct: MCF7 tumor cells, which originate from the American Tissue Culture Collection (ATCC), were used; host or cells: MCF7
T1 sequence (Q15125 whole entry): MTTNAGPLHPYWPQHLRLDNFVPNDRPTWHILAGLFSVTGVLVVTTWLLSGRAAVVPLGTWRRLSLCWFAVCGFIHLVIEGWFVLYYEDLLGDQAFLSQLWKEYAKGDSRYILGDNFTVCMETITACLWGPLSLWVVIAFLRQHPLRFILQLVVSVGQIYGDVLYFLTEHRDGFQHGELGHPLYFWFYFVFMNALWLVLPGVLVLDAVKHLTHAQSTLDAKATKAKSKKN
Method: For this experiment, an aminoalkyl sterol included in French patent 2 838 741 (and also see: de Medina et al., J Med Chem: 2009, vol. 52, No. 23, p. 7765-7777), having the formula: 6-N-[2-(3H-imidazol-4-yl)ethylamino]cholestane-3β,5α-diol (DDA), was chosen. […]
A thin-layer chromatography was carried out, the plate of which has been reproduced in FIG. 23. On this plate, the incubation is carried out, for lane 1, with [^14C]CE; for lane 2, with [^14C]CT; for lane 3, with the vehicle solvent, which is the same as that used for assays 1 to 5; for lane 4, with [14C]CE and 0.1 μM of the aminoalkyl sterol; and for lane 5, with [^14C]CE and a concentration of 1 μM of the aminoalkyl sterol.

[13] = system: TS/A cells; experiment: Tumor size of TS/A tumors implanted in BALB/c mice, intratumoral treatment; format: in vivo; settings: for Tumor size (% control): tamoxifen 10 μM, 100 μl intratumorally once a day
Method: A cell culture of TS/A cells was first performed. These TS/A cells are mouse mammary adenocarcinomas (see Nanni P et al., Clin. Exp. Metastasis, 1983 October-December; 1(4): 373-80). The cells are cultured, at 37° C. under 5% CO2, in a DMEM medium supplemented with 2 g/liter of sodium carbonate, 1.2 mM of glutamine (pH 7.4 at 23° C.), 5% of fetal bovine serum (Gibco) and 2.5 ml of antibiotics per liter of medium (penicillin/streptomycin).
The TS/A cells are recovered with trypsin, washed twice and suspended in PBS buffer. The TS/A cells (approximately 4×10^6 […] cells/0.1 ml) are then injected subcutaneously into the flank of 6-week-old female BALB/c mice (supplied by Charles River). […] The animals (10 mice per group) are monitored regularly for tumor development. The volume of the tumors is calculated according to the following formula: L×l^2×0.5 (L is the length and l is the width of the tumor). The experiment was reproduced twice. The results are given in FIG. 18 (the arrow indicates the beginning of the treatment).

[14] = target: T2, ChEH (Mus musculus, UniProt P70245); experiment: Conversion of [14C]CEα in cells of healthy mouse tissues with or without tamoxifen; format: cell-based; settings: incubation with tamoxifen
T2 construct: evaluated in cells of various healthy mouse tissues; from tissue; host or cells: cells from various healthy mouse organs
T2 sequence (P70245 whole entry): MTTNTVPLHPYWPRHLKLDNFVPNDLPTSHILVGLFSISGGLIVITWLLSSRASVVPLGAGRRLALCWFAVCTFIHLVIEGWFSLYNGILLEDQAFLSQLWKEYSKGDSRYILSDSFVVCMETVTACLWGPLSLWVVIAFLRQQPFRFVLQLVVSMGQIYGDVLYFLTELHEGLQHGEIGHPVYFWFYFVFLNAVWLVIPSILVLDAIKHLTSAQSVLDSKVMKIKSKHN

Row | SMILES | binding to a phorbol ester-binding protein [1] | rosette formation by T lymphocytes [2] | cytolytic activity produced by T lymphocytes in mice [3] | expression of the cytokine IL12 [4] | leukocyte mobility [5] | tumor volume versus control animals treated with the solvent ([6]; OCDO 50 μg/kg subcutaneously once a day, 5 days out of 7) | invasion of the lymph nodes versus solvent ([6]; OCDO 50 μg/kg, after 75 days of treatment) | proliferation induction factor [7] | expression of the immunosuppressive cytokine IL10 [8] | NK cell toxicity in mice [9] | % OCDO ([10]; MCF7 cells, [14C]CEα, three days, concentration given with each compound, share of labeled oxysterols) [%] | OCDO production by MCF-7 (% control) ([10]; concentration in μM in parentheses after each molecule, control = 100) | OCDO (% control) ([11]; Day 28) | OCDO (% control) ([11]; Day 37) | inhibition of the ChEH activity (3 days) in MCF7 cells [12] | Tumor size (% control) ([13]; Day 28) | Tumor size (% control) ([13]; Day 37) | tumor mass ([13]; tumor removed on day 28 from one treated animal, control animal tumor 2 g) [g] | formation of CT from [14C]CEα in healthy mouse tissue cells [14]
1 | CC(C)CCC[C@@H](C)[C@H]1CC[C@H]2[C@@H]3CC(=O)[C@@]4(O)C[C@@H](O)CC[C@]4(C)[C@H]3CC[C@]12C [OCDO, 6-oxo-cholestane-3β,5α-diol] | binds to a phorbol ester-binding protein | inhibit rosette formation by T lymphocytes | inhibit the cytolytic activity produced by T lymphocytes | reduces the expression | inhibit leukocyte mobility | almost three times larger | Twice as much invasion of the lymph nodes | 1.5 | stimulates the expression | induce NK cell toxicity | – | – | – | – | – | – | – | – | –
2 | CC/C(=C(\c1ccccc1)c1ccc(OCCN(C)C)cc1)c1ccccc1 [Tamoxifen, 2-[4-[(Z)-1,2-di(phenyl)but-1-enyl]phenoxy]-N,N-dimethylethanamine] | – | – | – | – | – | – | – | – | – | – | 6.9 | <1 | 19.2 ± 4 | 8.4 ± 4 | Dose-dependent inhibition | 73.5 ± 8 | 46.2 ± 7 | 1.45 | the CT compound no longer appears
